Key:
[1] = system: tail of a mouse; assay: Inhibition of the induction of pigmentation by UV-B radiation in irradiated and treated mice; format: in vivo; settings: lower dose (0.01%)
From the text: Retinoic acid (tretinoin) is known to itself have a skin depigmenting activity (Guevara I. A. and Pandya A. G., Int. J. Dermatol., 40, 210-215 (2001)). […] Tretinoin is therefore a depigmenting agent in and of itself.

[2] = system: natural pigmentation of the tail of an SKH:HR2 mouse; assay: Depigmenting activity on natural pigmentation, tail of non-irradiated SKH:HR2 mouse, 8 weeks; format: in vivo; settings: topical in acetone 5 days a week for 8 weeks, 3% hydroquinone, 0.1% adapalene, alone or in combination
Experimental: The evaluation of the depigmenting and/or anti-pigmenting activity of 3% hydroquinone and of 0.1% adapalene, alone or in combination for 8 weeks, is carried out on the tail of an SKH:HR2 mouse irradiated with ultraviolet B radiation, or not irradiated.
The treatment is carried out 5 days a week for 8 weeks. 20 μl of test product diluted in acetone are applied to the tail with a gap from applications: the hydroquinone is applied in the morning and the adapalene 4 h later.
−1: slight depigmentation
−2: moderate depigmentation
−3: marked depigmentation
−4: complete depigmentation

[3] = system: UV-induced pigmentation of the tail of an SKH:HR2 mouse; settings: UV-B 90 mJ/cm^2 3 times a week; topical in acetone 5 days a week for 8 weeks; 3% hydroquinone, 0.1% adapalene
Experimental: The tail of the SKH:HR2 mouse is naturally pigmented and this pigmentation increases under the effect of repeated UV-B irradiation. The depigmenting activity is measured on the natural pigmentation after application of the test product to the tail of non-irradiated animals. The anti-pigmenting activity is measured by the inhibition of the induction of the UV-induced pigmentation: the test product is applied to the tail of UV-B-irradiated animals.
The treatment is carried out 5 days a week for 8 weeks. […] On the days of irradiation, the treatment is applied after irradiation.
The animals are irradiated 3 times a week for 8 weeks (Monday, Wednesday, Friday) at the dose of 90 mJ/cm^2 of UV-B.
The pigmentation is evaluated once a week before irradiation, by means of a score on a scale of 0 to 4. The scores are divided as follows: Depigmentation scale: scores −1 to −4.
Pigmentation scale: scores 1 to 4

SMILES: CC1=C(/C=C/C(C)=C/C=C/C(C)=C/C(=O)O)C(C)(C)CCC1 [tretinoin, Retinoic acid]
- inhibition of the induction of pigmentation by UV-B radiation [1]: no effect

SMILES: COc1ccc(-c2ccc3cc(C(=O)O)ccc3c2)cc1C12CC3CC(CC(C3)C1)C2 [adapalene, 6-[3-(1-adamantyl)-4-methoxyphenyl]-2-naphthanoic acid]
- depigmenting activity (natural pigmentation score) [2]: no depigmenting activity
- depigmenting activity (natural pigmentation score) ([2]; listed as Adapalene): does not modify the natural pigmentation

SMILES: Oc1ccc(O)cc1 [hydroquinone]
- depigmenting activity (natural pigmentation score) [2]: induces a depigmentation
- anti-pigmenting activity (inhibition of pigmentation induced by UV-B irradiation) [3]: shows an anti-pigmenting effect at the 6th and at the 7th week (D50), which becomes less marked at the end of the study

— patent US20080219936A1, “Skin depigmenting compositions comprising adapalene, at least one depigmenting agent and at least one anti-inflammatory agent” (GALDERMA RESEARCH AND DEVELOPMENT, priority 2005, published 2008)
